Holding throughout (assay type): biochemical
For experiment [1], the target named is T1, SEQ ID NO 17, zmBX9 S117V, M279F, A334K mutant (Zea mays, UniProt B4G072, A334K/M279F/S117V).
T1 construct: polypeptides were the C-terminally his-tagged; His tag (C); made in house
As to the kind of experiment: UDP-Glo glucosyl transferase assay, purified enzyme. The following applies: herbicide mM: V 0.300, VI 0.250, VII 0.210; IV, VIII, XI, XXI, XX, XVIII, XVI, XV, XIV 0.200; others 1.000.

Experiment [2] deals with T2, SEQ ID NO 21, mutant of Zea mays bx9 glucosyl transferase (Zea mays, UniProt B4G072, A334K/F21Y/L194V/M279F/S117V).
T2 construct: His tag (C); made in house
Described as above. The following applies: lower block, concentration printed only in upper block: V 0.300, VII 0.210; IV, VIII, XI, XXI, XX, XVIII, XVI, XV, XIV 0.200; others 1.000 mM.

The target of experiment [3] is T3, SEQ ID NO 22, mutant of Zea mays bx9 glucosyl transferase (Zea mays, UniProt B4G072, A334K/F21Y/M279F/S117V/T220P).
T3 construct: His tag (C); made in house
The experiment is described as above. The settings on record: lower block, concentration printed only in upper block: V 0.300, VII 0.210; IV, VIII, XI, XXI, XX, XVIII, XVI, XV, XIV 0.200; others 1.000 mM.

For experiment [4], the target named is T4, SEQ ID NO 18, mutant of Zea mays bx9 glucosyl transferase (Zea mays, UniProt B4G072, A281K/A334K/F21Y/M279F/S117V).
T4 construct: His tag (C); made in house
The experiment is described as above. The following applies: herbicide mM: V 0.300, VI 0.250, VII 0.210; IV, VIII, XI, XXI, XX, XVIII, XVI, XV, XIV 0.200; others 1.000.

Experiment [5] has as its target T5, SEQ ID NO 23, mutant of Zea mays bx9 glucosyl transferase (Zea mays, UniProt B4G072, A334K/F21Y/L194C/M279F/S117V).
T5 construct: His tag (C); made in house
The description is as above. The following applies: lower block, concentration printed only in upper block: V 0.300, VII 0.210; IV, VIII, XI, XXI, XX, XVIII, XVI, XV, XIV 0.200; others 1.000 mM.

For experiment [6], the target named is T6, SEQ ID NO 19, mutant of Zea mays bx9 glucosyl transferase (Zea mays, UniProt B4G072, A281K/A334K/L194V/M279F/S117V).
T6 construct: His tag (C); made in house
The experiment is described as above. The following applies: herbicide mM: V 0.300, VI 0.250, VII 0.210; IV, VIII, XI, XXI, XX, XVIII, XVI, XV, XIV 0.200; others 1.000.

The target in experiment [7] is T7, SEQ ID NO 20, mutant of Zea mays bx9 glucosyl transferase (Zea mays, UniProt B4G072, A281K/A334K/F21Y/L194V/M279F/S117V).
T7 construct: His tag (C); made in house
The following applies: lower block, concentration printed only in upper block: V 0.300, VII 0.210; IV, VIII, XI, XXI, XX, XVIII, XVI, XV, XIV 0.200; others 1.000 mM.

The values that follow come from patent US20200270588A1, “GLUCOSYL TRANSFERASE POLYPEPTIDES AND METHODS OF USE” (Syngenta Participations AG, priority 2017, published 2020).

T2 sequence (B4G072 whole entry F21Y/S117V/L194V/M279F/A334K): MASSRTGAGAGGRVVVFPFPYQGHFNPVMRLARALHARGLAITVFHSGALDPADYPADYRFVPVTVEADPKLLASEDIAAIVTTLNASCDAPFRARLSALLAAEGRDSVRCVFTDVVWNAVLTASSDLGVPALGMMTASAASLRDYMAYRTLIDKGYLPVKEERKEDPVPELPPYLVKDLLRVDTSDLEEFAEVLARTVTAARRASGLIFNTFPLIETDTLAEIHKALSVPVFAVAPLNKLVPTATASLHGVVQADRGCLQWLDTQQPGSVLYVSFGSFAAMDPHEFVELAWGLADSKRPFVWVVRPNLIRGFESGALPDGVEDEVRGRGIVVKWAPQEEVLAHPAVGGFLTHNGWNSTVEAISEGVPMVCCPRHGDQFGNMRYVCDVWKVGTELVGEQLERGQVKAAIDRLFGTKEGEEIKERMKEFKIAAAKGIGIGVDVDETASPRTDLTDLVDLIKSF
T5 sequence (B4G072 whole entry F21Y/S117V/L194C/M279F/A334K): as the sequence (B4G072 whole entry F21Y/S117V/L194V/M279F/A334K) above, with V194C counted along it
T6 sequence (B4G072 whole entry S117V/L194V/M279F/A281K/A334K): as the sequence (B4G072 whole entry F21Y/S117V/L194V/M279F/A334K) above, with Y21F, A281K counted along it
T1 sequence (B4G072 whole entry S117V/M279F/A334K): as the sequence (B4G072 whole entry F21Y/S117V/L194V/M279F/A334K) above, with Y21F, V194L counted along it
T4 sequence (B4G072 whole entry F21Y/S117V/M279F/A281K/A334K): as the sequence (B4G072 whole entry F21Y/S117V/L194V/M279F/A334K) above, with V194L, A281K counted along it
T3 sequence (B4G072 whole entry F21Y/S117V/T220P/M279F/A334K): as the sequence (B4G072 whole entry F21Y/S117V/L194V/M279F/A334K) above, with V194L, T220P counted along it
T7 sequence (B4G072 whole entry F21Y/S117V/L194V/M279F/A281K/A334K): as the sequence (B4G072 whole entry F21Y/S117V/L194V/M279F/A334K) above, with A281K counted along it

For `CON1C(=O)N(c2cc(C(F)(F)F)ccn2)C(O)[C@@H]1C` (stereo partly shown) [Compound VI], the Activity in experiment [1] is reported as 1.003 pmol/sec/pmol enzyme.

Consider `CN1CC(O)N(c2cc(C(F)(F)F)c(Cl)cn2)C1=O` (stereo not shown) [XI], for which the Activity in experiment [2] turned out to be 0.374 pmol/sec/pmol enzyme; in experiment [1], 0.120 pmol/sec/pmol enzyme; in experiment [3], 0.548 pmol/sec/pmol enzyme; in experiment [4], 0.710 pmol/sec/pmol enzyme; in experiment [5], 0.227 pmol/sec/pmol enzyme; in experiment [6], 0.898 pmol/sec/pmol enzyme. This compound also came in with an Activity in experiment [7] of 1.046 pmol/sec/pmol enzyme.

For `Cc1cnc(N2C(=O)N(C)CC2O)cc1C(F)(F)F` (stereo not shown) [XVIII], the Activity in experiment [2] stood at 0.425 pmol/sec/pmol enzyme; in experiment [1], 0.231 pmol/sec/pmol enzyme; in experiment [3] it was 0.933 pmol/sec/pmol enzyme; in experiment [4], 0.898 pmol/sec/pmol enzyme; in experiment [5], 0.253 pmol/sec/pmol enzyme; in experiment [6], 0.964 pmol/sec/pmol enzyme. Further, the Activity in experiment [7] is 1.141 pmol/sec/pmol enzyme.

For the compound `CN1CC(O)N(c2cc(C(F)(F)F)ccn2)C1=O` (stereo not shown) [Compound V], the Activity in experiment [2] stood at 1.548 pmol/sec/pmol enzyme; in experiment [1] it was 0.565 pmol/sec/pmol enzyme; in experiment [3] it was 1.221 pmol/sec/pmol enzyme; in experiment [4] it was 1.582 pmol/sec/pmol enzyme; in experiment [5], 1.246 pmol/sec/pmol enzyme; in experiment [6] it was 1.651 pmol/sec/pmol enzyme. In experiment [7], this compound displayed an Activity of 1.889 pmol/sec/pmol enzyme.
